Measured values as given in patent publication US5028440A, “Method of raising meat producing animals to increase lean tissue development” (Iowa State University Research Foundation, Inc., priority 1990, dated 1991).
“Also recorded” adds a separate entry of the source.

How the values were obtained:
[1] = system: lambs; assay: Feeding of HMB to Lambs--Trial 1; format: in vivo
From the text: Animals and Experimental Design. Three sets of twin lambs were housed individually in fiberglass pens. Animals were randomly assigned to control or HMB diets, using Ca-HMB as the feed additive at a level of 0.5% of the basal diet.
Composition of Basal Diet Fed to All Sheep.
(§1) Trace mineral & vitamin premix

[2] = Stability of KIC or HMB in the rumen (incubation in rumen fluid); format: in vitro ADME, steer; settings: for KIC or HMB in rumen fluid: 39° C.
Protocol: Rumen fluid was collected from a fistulated steer. After filtration and dilution (1:4) with an artificial saliva, 25ml of the solution was added to 50ml plastic tubes. Each tube was fitted with a one-way valve to allow gases to escape while not allowing air into the tube. Each tube was then gassed with CO2 and incubated at 39° C. After 30 min a solution of KIC or HMB was added to the tube in concentrations to simulate what would be present in the rumen of an animal consuming 0.05% of the diet as KIC or HMB. It was estimated that a 50 uM concentration would be attained in this case. At timed intervals 50 ul samples of this rumen fluid were taken and analyzed for KIC and HMB.

[3] = system: pig red blood cells; assay: Pig red blood cell antibody titer in chicks (microtiter agglutination test); format: in vivo, chicks (male leghorn); settings: 0.04% of the diet, 5 weeks; for Red blood cell titer, change from control: ** (HMB) significant at p < .02; for Red blood cell titer: pig red blood cells injected week 2, control 1.57
Protocol: (§2) To compare KIC and HMB as growth promotants, young male leghorn chicks were allotted to 12 battery (wire mess floors) pens consisting of 10 birds each. Treatments of control, HMB (0.04% of the diet) and KIC (0.04% of the diet) were assigned to the pens. Feed consumption was measured during the 5 week experiment. During week 2 of the experiment chicks were injected with 50 ul of a 20% suspension of pig red blood cells intraperitoneally.
(§3) Chicks were fed a diet adequate in all nutrients for leghorns of this age. HMB was a supplement to this diet at 0.04% of the diet (w/w).
(§4) At the end of the 5 week experiment chicks were decapitated and serum collected for pig red blood cells antibody titer determination. Titers to red blood cells were evaluated by a microtiter agglutination test (Kuhlman, et al.). Also, the Pectoralis major muscle (the major breast muscle) was dissected and weighed as a measure of muscle growth.

[4] = system: domestic animals; assay: Growth metabolism of domestic animals, HMB compared with KIC (summary statement); settings: in vivo
[5] = system: male leghorn chicks; assay: Feeding HMB to Poultry: growth, feed efficiency and breast muscle of chicks; format: in vivo; settings: 0.04% of the diet; for Feed/gain / Breast muscle / Gain: 5 week data; for Feed/gain: control 2.30; for Breast muscle: control 2.84; for Gain: control 222; for Breast muscle, change from control / Feed/gain, change from control: ** (HMB) significant at p < .02
Protocol: as §2, §3, §4

[6] = system: lambs; assay: Feeding of HMB to Lambs--Trial 2; format: in vivo
From the text: Animals and Experimental Design. Twenty-two lambs were housed individually in fiberglass pens (1.15 m^2) and randomly assigned to control or HMB diets. The control had nothing added to the diet while the HMB animals had 1 g of CaHMB supplemented to their diets each day. At the beginning of the experiment animals were weighed and ultrasound measurement made of the longissimus area and the amount of fat over the longissimus muscle. These measurements were made over the 12th rib area. Feed consumption was monitored. At the end of the experiment animals were weighed, feed consumption measured and the longissimus area and fat thickness measured again with the ultrasound apparatus. The gain in longissimus area and backfat were calculated from the initial value.
Composition of Basal Diet Fed to All Sheep
as §1

[7] = feeds for cattle and sheep; background statement; cited from earlier work
[8] = system: domestic animals; settings: cited from earlier work
[9] = KIC fed as replacement for leucine; cited from earlier work
[10] = Hygroscopicity of HMB salts; format: physicochemical
[11] = 0 min after addition, rumen fluid diluted 1:4 with artificial saliva, initial KIC could only be estimated
[12] = 15 min after addition, rumen fluid diluted 1:4
[13] = 30 min after addition, rumen fluid diluted 1:4
[14] = 60 min after addition, rumen fluid diluted 1:4
[15] = 240 min after addition, rumen fluid diluted 1:4
[16] = 480 min after addition, rumen fluid diluted 1:4

## CC(C)(O)CC(=O)O [HMB, β-hydroxy-β-methyl butyric acid]
[1]; Ca-HMB 0.5% of the basal diet, control 2.1
  Longissimus area: 2.3 sq. in.
[1]; Ca-HMB 0.5% of the basal diet, control 2.42
  Renal Fat %: 1.90 % of animal live weight
[1]; Ca-HMB 0.5% of the basal diet, control 3.89
  Feed/gain: 3.60
[1]; Ca-HMB 0.5% of the basal diet, control .21
  Back Fat (fat thickness over 12th rib): .12 in
[1]; Ca-HMB 0.5% of the basal diet, control .287
  Average daily gain: .296 kg/day
[1]; limited study, vs controls
  lean tissue and fat growth (in words): appeared to stimulate growth of lean tissues at the expense of fat
[1]; vs controls
  % change due to HMB, Average daily gain: +3%
  % change due to HMB, Feed/Gain: -7%
  % change due to HMB, Longissimus area: +10%
[1]; vs controls, *P < 0.5
  % change due to HMB, Back Fat: -43%
  % change due to HMB, Renal Fat: -22%
[2]
  stability in rumen environment (in words): not being subject to appreciable rumen destruction; also recorded: not subject to significant rumen destruction; also recorded: quite stable in a rumen environment
[2]; [11]
  KIC or HMB in rumen fluid: 60 µM
[2]; [12]
  KIC or HMB in rumen fluid: 76 µM
[2]; [13]
  KIC or HMB in rumen fluid: 81 µM
[2]; [14]
  KIC or HMB in rumen fluid: 71 µM
[2]; [15]
  KIC or HMB in rumen fluid: 74 µM
[2]; [16]
  KIC or HMB in rumen fluid: 74 µM
[3]
  Red blood cell titer, change from control: 107%
  Red blood cell titer: 3.25 dilution
[4]
  improving growth metabolism compared with KIC (in words): more effective for improving growth metabolism of domestic animals
  lean tissue development (in words): increase markedly the development of lean tissue
[5]
  Feed/gain: 2.17
  Breast muscle: 3.00%
  Gain: 229 g
[5]; 5 weeks
  Gain, change from control: 3.3%
  comparison with KIC in all parameters (in words): superior in all parameters measured
  performance of growing chicks (in words): increased performance of growing chicks by increasing the rate of growth and by making more efficient use of feed for growth
  Breast muscle, change from control: 5.5%
  Feed/gain, change from control: -5.8%
[6]; 1 g CaHMB per day, control 4.41
  Feed/gain: 4.28
[6]; 1 g CaHMB per day, lambs from 60 lbs. to 100 lbs., control 38.5
  Total gain: 40.5 lbs
[6]; 1 g CaHMB per day, ultrasound, control 2.08
  Loin area gain: 3.34 cm2
[6]; 1 g CaHMB per day, ultrasound, control .27
  Back fat gain: .19 cm
[6]; vs control
  % Change, Feed/gain: -3%
  % Change, Total gain: +6%
  performance and lean vs. fat gain (in words): increases preformance and increases lean vs. fat gain
[6]; vs control, **P < .02 level
  % Change, Back fat gain: -30%
  % Change, Loin area gain: 60%

## CC(C)CC(=O)C(=O)O [KIC, α-keto-isocaproic acid, reference compound]
[2]
  stability in rumen environment (in words): rapidly destroyed by the rumen bacteria
[2]; [11]
  KIC or HMB in rumen fluid: 30 µM
[2]; [12]
  KIC or HMB in rumen fluid: 15 µM
[2]; [13]
  KIC or HMB in rumen fluid: 4 µM
[2]; [14]
  KIC or HMB in rumen fluid: 2 µM
[2]; [15]
  KIC or HMB in rumen fluid: 2 µM
[2]; [16]
  KIC or HMB in rumen fluid: 1 µM
[7]
  rumen destruction (in words): subject to partial rumen destruction
[8]; U.S. Pat. No. 4,835,185
  effects on the immune system (in words): some apparently beneficial effects on the immune system
[8]; U.S. Pat. Nos. 4,760,090 and 4,760,531
  cholesterol in meat, milk and eggs (in words): cholesterol reduction in meat, milk and eggs
[8]; domestic animals, particularly ruminants
  consistency of beneficial effects (in words): not consistently obtainable
[8]; lactating domestic animals, such as dairy cattle, U.S. Pat. No. 4,758,593
  milk production (in words): the quantity of milk produced may be increased
[8]; laying chickens, U.S. Pat. No. 4,760,531
  egg production (in words): can also sometimes be increased
[8]; mature sheep, U.S. Pat. No. 4,760,090
  wool production (in words): the amount of wool produced may also be increased
[8]; milligram amounts of KIC, U.S. Pat. Nos. 4,760,090 and 4,883,817
  rates of weight gain and/or feed efficiencies (in words): some increases in the rates of weight gain and/or feed efficiencies have been obtained
[8]; previous research
  muscle growth (in words): generally has not been found to stimulate muscle growth
[8]; sheep, previous research
  fat deposition (in words): decrease fat deposition
[3]
  Red blood cell titer, change from control: 68%
  Red blood cell titer: 2.65 dilution
[9]
  amount of KIC required relative to nutritionally required amount of leucine: two to three
[4]
  accumulation of body fat (in words): slight tending for KIC to reduce the accumulation of body fat
  lean tissue development (in words): not obtainable with KIC
[5]
  Feed/gain: 2.24
  Breast muscle: 2.94%
  Gain: 229 g
[5]; 5 weeks
  Gain, change from control: 3.3%
  Breast muscle, change from control: 3.5%
  Feed/gain, change from control: -2.5%

## CC(C)(O)CC(=O)O [Na-HMB]
[10]
  hygroscopicity (in words): more hydroscopic than Ca-HMB
